How the values were obtained:
[1] = system: rats; experiment: Hypothermia test of the tetrad; assay type: in vivo, rat
Description: Rats are acclimated to a plastic restrainer apparatus (Model RTV-180 Braintree Scientific Inc.) on the day of testing by placing them in the restrainer twice for 5 min separated by 20 min. Baseline core temperature is taken before treatment, and the rectal temperature is measured again at various times after injection of the CB1R ligands.

[2] = target: human CB1R (hCB1R) (Homo sapiens, UniProt P21554); experiment: human CB1R (hCB1R) calcium flux assay; assay type: cell-based; conditions: Table 1; read-out: Ca Flux % Emax
Source text: Compounds were first screened for: a) CB1R and CB2R binding, b) CB1R agonist activity using the human CB1R (hCB1R) calcium flux assay, and c) BBB permeability using the Madin-Darby canine kidney (MDCK-MDR1) cell line assay.
The calcium 3 dye assays were run according to manufacturer's specifications (http://www.moleculardevices.com/Products/Assay-Kits/GPCRs/FLIPR-Calcium.html) and as reported in our previous publications^112,113. Briefly, wells of black clear-bottom 96-well tissue culture-treated plates are seeded with 20,000 cells the afternoon before assay. The day of assay, the cells are incubated with the Ca^2+ indicator dye for 1 hr @ 37° C. For antagonist assays, the test compound is preincubated with the cells during the last 10 min of the dye incubation. Basal or unstimulated fluorescence intensity is recorded in the FlexStation @ 37° C. for 13 sec followed by the addition of test compound or CP 55,940 (depending on the assay endpoint). Fluorescence intensity is recorded for an additional 47 sec. The effect of test compound in each well is determined by subtracting the minimum from the maximum fluorescence during the 47-sec recording period.

Sequence of human CB1R (hCB1R) (P21554 whole entry): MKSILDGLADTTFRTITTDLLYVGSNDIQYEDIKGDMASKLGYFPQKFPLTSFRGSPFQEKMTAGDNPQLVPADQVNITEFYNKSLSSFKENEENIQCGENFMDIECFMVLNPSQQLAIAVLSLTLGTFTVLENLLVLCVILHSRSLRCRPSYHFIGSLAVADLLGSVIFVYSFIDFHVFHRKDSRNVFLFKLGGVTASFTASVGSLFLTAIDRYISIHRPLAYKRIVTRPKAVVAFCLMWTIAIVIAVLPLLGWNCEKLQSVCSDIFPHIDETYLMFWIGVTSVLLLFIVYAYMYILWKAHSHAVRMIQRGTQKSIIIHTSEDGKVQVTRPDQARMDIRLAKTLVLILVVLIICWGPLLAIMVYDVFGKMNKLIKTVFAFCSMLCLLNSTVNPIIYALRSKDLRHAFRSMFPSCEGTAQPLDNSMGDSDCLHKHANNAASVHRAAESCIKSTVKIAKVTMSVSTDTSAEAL

CCCc1ccc(/C=C2\C=C(CCN3CCOCC3)c3ccccc32)c2ccccc12 [Compound 9, 4-{2-[(1E)-1-[(4-propylnaphthalen-1-yl)methylidene]-1H-inden-3-yl]ethyl} morpholine]
effect in the hypothermia assay ([1]; 0.3 mg/kg, intraperitoneal): no effect | Hypothermia % change from predrug (0.3 mg/kg) at 2-3 hr ([1]; 2-3 hr): 0% | Emax [2]: 108%
